The values below come from patent publication US10689354B2, “Aminoazole derivative” (Teijin Pharma Limited, priority 2015, dated 2020).

Molecules are shown by their SMILES. Where only a bound is given, the exact number is not on record here.

The target in this assay is T1, androgen receptor (AR-LBD) (Rattus norvegicus, UniProt P15207).
T1 construct: 5 μL of 2×AR-LBD/Fluoromone AL Red Complex contained in the kit; purchased Invitrogen
T1 sequence (P15207 651-882 limits assumed): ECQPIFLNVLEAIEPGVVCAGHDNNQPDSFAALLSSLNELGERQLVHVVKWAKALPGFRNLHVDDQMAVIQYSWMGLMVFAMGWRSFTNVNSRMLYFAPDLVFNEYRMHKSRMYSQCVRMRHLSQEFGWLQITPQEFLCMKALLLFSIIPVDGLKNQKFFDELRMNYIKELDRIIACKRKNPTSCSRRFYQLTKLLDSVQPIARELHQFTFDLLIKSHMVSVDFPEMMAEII
Put plainly: Evaluation of androgen receptor affinity (PolarScreen Androgen Receptor Competitor Assay Kit, Red; fluorescence polarization). As to conditions: 22° C. for 5 hours, relative to binding rate of 1 μM DHT, read-out: AR affinity (pEC50) (converted). Here is the method: Evaluation of an Androgen Receptor Affinity
To examine the interaction of a compound with an androgen receptor, evaluation was carried out in accordance with the following procedure using PolarScreen™ Androgen Receptor Competitor Assay Kit, Red (Invitrogen). To 2 wells each of a 384 well black plate was added 5 μL of the compound solution. To each well was added 5 μL of 2×AR-LBD/Fluoromone AL Red Complex contained in the kit and the samples were reacted at 22° C. for 5 hours. After 5 hours of the reaction, fluorescence polarization was measured and the affinity was evaluated. The affinity of the compound was determined by comparing to the binding rate of 1 μM of dihydrotestosterone (DHT), and quantified the logarithm value (pEC50) of reciprocal value of the effective concentration of the compound which is equal to 50% of the binding rate by applying a 4 parameter goodness-of-fit calculation.

For `Cc1sc(N(C[C@H]2CC[C@H](O)CC2)c2ccc(C#N)cc2)nc1C(=O)NS(C)(=O)=O` [Compound 354, 2-[4-cyano-N-[(trans-4-hydroxycyclohexyl)methyl]anilino]-5-methyl-N-methylsulfonyl-thiazole-4-carboxamide], the EC50 is over 2000 nM.
The same measure for `Cc1sc(N(Cc2ccccc2CO)c2ccc(C#N)cc2)nc1C(=O)NS(C)(=O)=O` [Compound 355, 2-[4-cyano-N-[[2-(hydroxymethyl)phenyl]methyl]anilino]-5-methyl-N-methylsulfonyl-thiazole-4-carboxamide]: 501 nM.
The same measure for `Cc1sc(N(Cc2ccc(CO)cc2)c2ccc(C#N)cc2)nc1C(=O)NS(C)(=O)=O` [Compound 356, 2-[4-cyano-N-[[4-(hydroxymethyl)phenyl]methyl]anilino]-5-methyl-N-methylsulfonyl-thiazole-4-carboxamide]: 631 nM; for `COCCN(c1ccc(C#N)cc1)c1nc(C(=O)NS(C)(=O)=O)c(C)s1` [Compound 357, 2-[4-cyano-N-(2-methoxyethyl)anilino]-5-methyl-N-methylsulfonyl-thiazole-4-carboxamide]: over 2000 nM.
Regarding `Cc1sc(N(CCCCO)c2ccc(C#N)cc2)nc1C(=O)NS(C)(=O)=O` [Compound 358, 2-[4-cyano-N-(4-hydroxybutyl)anilino]-5-methyl-N-methylsulfonyl-thiazole-4-carboxamide], the EC50 is over 2000 nM.
As to `Cc1sc(N(CCCC#N)c2ccc(C#N)cc2)nc1C(=O)NS(C)(=O)=O` [Compound 360, 2-[4-cyano-N-(3-cyanopropyl)anilino]-5-methyl-N-methylsulfonyl-thiazole-4-carboxamide], the EC50 was over 2000 nM.
The same measure for `Cc1sc(N(Cc2ccccc2)c2ccc(C#N)cc2)nc1C(=O)NS(=O)(=O)CCN1C(=O)c2ccccc2C1=O` [Compound 373, 2-(N-benzyl-4-cyano-anilino)-N-[2-(1,3-dioxoisoindolin-2-yl)ethylsulfonyl]-5-methyl-thiazole-4-carboxamide]: over 2000 nM.
On to `Cc1sc(N(Cc2ccccc2)c2ccc(C#N)cc2)nc1C(=O)NS(=O)(=O)c1ccccc1` [Compound 375, N-(benzenesulfonyl)-2-(N-benzyl-4-cyano-anilino)-5-methyl-thiazole-4-carboxamide], for which the EC50 was over 2000 nM.
As for `COCC(CN(c1ccc(C#N)cc1)c1nc(C(=O)NS(C)(=O)=O)c(C)s1)c1ccccc1` (stereo not shown) [Compound 377, 2-(4-cyano-N-(3-methoxy-2-phenyl-propyl)anilino)-5-methyl-N-methylsulfonyl-thiazole-4-carboxamide], the figure is over 2000 nM; as for `Cc1sc(N(Cc2cscn2)c2ccc(C#N)cc2)nc1C(=O)NS(C)(=O)=O` [Compound 380, 2-[4-cyano-N-(thiazol-4-ylmethyl)anilino]-5-methyl-N-methylsulfonyl-thiazole-4-carboxamide], 794 nM.
Turning to `Cc1sc(N(Cc2ccccc2)c2ccc(C#N)cc2)nc1C(=O)NS(=O)(=O)c1cccnc1` [Compound 381, 2-(N-benzyl-4-cyano-anilino)-5-methyl-N-(3-pyridylsulfonyl)thiazole-4-carboxamide], the EC50 was 794 nM.
`Cc1sc(N(Cc2ccccc2)c2ccc(C#N)cc2)nc1C(=O)NS(=O)(=O)CCN1C(=O)CCC1=O` [Compound 383, 2-(N-benzyl-4-cyano-anilino)-N-[2-(2,5-dioxopyrrolidin-1-yl)ethylsulfonyl]-5-methyl-thiazole-4-carboxamide]: the EC50 was over 2000 nM.
As for `Cc1sc(N(Cc2ccccc2)c2ccc(C#N)cc2)nc1C(=O)NS(=O)(=O)/C=C/c1ccccc1` [Compound 385, 2-(N-benzyl-4-cyano-anilino)-5-methyl-N-[(E)-styryl]sulfonyl-thiazole-4-carboxamide], the figure is 794 nM; as for `Cc1sc(N(Cc2ccc3nc[nH]c3c2)c2ccc(C#N)cc2)nc1C(=O)NS(C)(=O)=O` [Compound 389, 2-[N-(3H-benzimidazol-5-ylmethyl)-4-cyano-anilino]-5-methyl-N-methylsulfonyl-thiazole-4-carboxamide], 1580 nM.
As for `Cc1sc(N(Cc2nccs2)c2ccc(C#N)cc2)nc1C(=O)NS(C)(=O)=O` [Compound 392, 2-[4-cyano-N-(thiazol-2-ylmethyl)anilino]-5-methyl-N-methylsulfonyl-thiazole-4-carboxamide], the figure is over 2000 nM; as for `Cc1sc(N(Cc2ccccc2)c2ccc(C#N)cc2)nc1C(=O)NS(=O)(=O)c1cn(C)cn1` [Compound 394, 2-(N-benzyl-4-cyano-anilino)-5-methyl-N-(1-methylimidazol-4-yl)sulfonyl-thiazole-4-carboxamide], over 2000 nM; as for `COCCOc1cccc(N(Cc2ccccc2)c2nc(C(=O)NS(C)(=O)=O)c(C)s2)c1` [Compound 398, 2-[N-benzyl-3-(2-methoxyethoxy)anilino]-5-methyl-N-methylsulfonyl-thiazole-4-carboxamide], over 2000 nM.
Consider `Cc1sc(N(Cc2cccc3cnccc23)c2ccc(C#N)cc2)nc1C(=O)NS(C)(=O)=O` [Compound 402, 2-[4-cyano-N-(5-isoquinolylmethyl)anilino]-5-methyl-N-methylsulfonyl-thiazole-4-carboxamide], for which the EC50 was 1000 nM.
As for `Cc1sc(N(CC2CCCC2O)c2ccc(C#N)cc2)nc1C(=O)NS(C)(=O)=O` (stereo not shown) [Compound 405, 2-[4-cyano-N-[(2-hydroxycyclopentyl)methyl]anilino]-5-methyl-N-methylsulfonyl-thiazole-4-carboxamide], the figure is over 2000 nM.
Regarding `Cc1sc(N(Cc2ccccc2)c2ccccn2)nc1C(=O)NS(C)(=O)=O` [Compound 408, 2-[benzyl(2-pyridyl)amino]-5-methyl-N-methylsulfonyl-thiazole-4-carboxamide], the EC50 was over 2000 nM.
For the compound `Cc1sc(N(CC(=O)NC2CC2)c2ccc(C#N)cc2)nc1C(=O)NS(C)(=O)=O` [Compound 412, 2-(4-cyano-N-[2-(cyclopropylamino)-2-oxo-ethyl]anilino)-5-methyl-N-methylsulfonyl-thiazole-4-carboxamide], the EC50 is over 2000 nM.
Take `Cc1sc(N(Cc2ccc(C(F)(F)F)cc2C(F)(F)F)c2ccc(C#N)cc2)nc1C(=O)NS(C)(=O)=O` [Compound 414, 2-[N-[[2,4-bis(trifluoromethyl)phenyl]methyl]-4-cyano-anilino]-5-methyl-N-methylsulfonyl-thiazole-4-carboxamide]: the EC50 was 501 nM.
With `Cc1sc(N(Cc2cc(C(F)(F)F)ccc2C(F)(F)F)c2ccc(C#N)cc2)nc1C(=O)NS(C)(=O)=O` [Compound 415, 2-[N-[[2,5-bis(trifluoromethyl)phenyl]methyl]-4-cyano-anilino]-5-methyl-N-methylsulfonyl-thiazole-4-carboxamide], the EC50 was over 2000 nM.
Take `Cc1sc(N(Cc2ccccc2)c2ccncc2)nc1C(=O)NS(C)(=O)=O` [Compound 422, 2-[benzyl(4-pyridyl)amino]-5-methyl-N-methylsulfonyl-thiazole-4-carboxamide]: the EC50 was 1260 nM.
In the case of `Cc1sc(N(CC(=O)NC2CCCCC2)c2ccc(C#N)cc2)nc1C(=O)NS(C)(=O)=O` [Compound 423, 2-(4-cyano-N-[2-(cyclohexylamino)-2-oxo-ethyl]anilino)-5-methyl-N-methylsulfonyl-thiazole-4-carboxamide], the EC50 is over 2000 nM.
